Measurements taken from patent US5281603A, “Angiotensin II receptor blocking 2,3,6 substituted quinazolinones” (American Cyanamid Company, priority 1993, dated 1994).
Values joined by “and” are separate entries in the source; they are usually repeats but may differ in a detail not shown here. Identical values can stand only once.

Tested on: Angiotensin II vasopressor response
Experiment: AII challenge: antagonism of angiotensin II vasopressor response in conscious spontaneously hypertensive rats
Type: in vivo, rat (Male Okamoto-Aoki SHR)
Details: 10 mg/kg I.V.; for % Inhibition / Average Change: SHR n=2; for Response After AII / Change / Control Before AII: individual SHR
Excerpt: By administering a compound of this invention to a rat, and then challenging with angiotensin II, a blockage of the vasopressor response is realized.
Conscious Male Okamoto-Aoki SHR, 16-20 weeks old, weighing approximately 330 g are purchased from Charles River Labs (Wilmington, Mass.). Conscious rats are restrained in a supine position with elastic tape. The area at the base of the tail is locally anesthetized by subcutaneous infiltration with 2% procaine. The ventral caudal artery and vein are isolated, and a cannula made of polyethylene (PE) 10-20 tubing (fused together by heat) is passed into the lower abdominal aorta and vena cava, respectively. The cannula is secured, heparinized (1,000 I.U./ml), sealed and the wound is closed. The animals are placed in plastic restraining cages in an upright position. The cannula is attached to a Statham P23Db pressure transducer, and pulsatile blood pressure is recorded to 10-15 minutes with a Gould Brush recorder. (Chan et al., (Drug Development Res., 18:75-94, 1989).
Angiotensin II (human sequence, Sigma Chem. Co., St. […] Then a test compound, vehicle or a known angiotensin II antagonist is administered i.v., i.p. or orally to each set of rats. The two doses of angiotensin II are given to each rat again at 30, 60, 90, 120, 180, 240 and 300 minutes post dosing the compound or vehicle. The vasopressor response of angiotensin II is measured for the increase in systolic blood pressure in mmHg. The percentage of antagonism or blockade of the vasopressor response of angiotensin II by a compound is calculated using the vasopressor response (increase in systolic blood pressure) of angiotensin II of each rat predosing the compound as 100%. A compound is considered active if at 30 mg/kg i.v. it antagonized at least 50% of the response.

[1] = AII 0.05 mcg/kg IV, 30 min post dose
[2] = AII 0.05 mcg/kg IV, 60 min post dose
[3] = AII 0.05 mcg/kg IV, 90 min post dose
[4] = AII 0.05 mcg/kg IV, 120 min post dose
[5] = AII 0.05 mcg/kg IV, 180 min post dose
[6] = AII 0.05 mcg/kg IV, 240 min post dose
[7] = AII 0.05 mcg/kg IV, 300 min post dose
[8] = AII 0.1 mcg/kg IV, 30 min post dose
[9] = AII 0.1 mcg/kg IV, 60 min post dose
[10] = AII 0.1 mcg/kg IV, 90 min post dose
[11] = AII 0.1 mcg/kg IV, 120 min post dose
[12] = AII 0.1 mcg/kg IV, 180 min post dose
[13] = AII 0.1 mcg/kg IV, 240 min post dose
[14] = AII 0.1 mcg/kg IV, 300 min post dose
[15] = AII 0.05 mcg/kg IV, 30 min post dose, 10 mg/kg
[16] = AII 0.05 mcg/kg IV, 60 min post dose, 10 mg/kg
[17] = AII 0.05 mcg/kg IV, 90 min post dose, 10 mg/kg
[18] = AII 0.05 mcg/kg IV, 120 min post dose, 10 mg/kg
[19] = AII 0.05 mcg/kg IV, 180 min post dose, 10 mg/kg
[20] = AII 0.05 mcg/kg IV, 240 min post dose, 10 mg/kg
[21] = AII 0.05 mcg/kg IV, 300 min post dose, 10 mg/kg
[22] = AII 0.1 mcg/kg IV, 30 min post dose, 10 mg/kg
[23] = AII 0.1 mcg/kg IV, 60 min post dose, 10 mg/kg
[24] = AII 0.1 mcg/kg IV, 90 min post dose, 10 mg/kg
[25] = AII 0.1 mcg/kg IV, 120 min post dose, 10 mg/kg
[26] = AII 0.1 mcg/kg IV, 180 min post dose, 10 mg/kg
[27] = AII 0.1 mcg/kg IV, 240 min post dose, 10 mg/kg
[28] = AII 0.1 mcg/kg IV, 300 min post dose, 10 mg/kg

`CCCCc1nc2ccc(C3=NN[C@H]4C(=O)N(C)C(=O)[C@@H]34)cc2c(=O)n1Cc1ccc(-c2ccccc2-c2nnn[nH]2)cc1` (relative stereo) [Example 7] was tested, and the “% Inhibition” value [1] was 57%, the “Average Change” value [1] was 20 mmHg and the “% Inhibition” value [2] was 57%. For the same compound, the “Average Change” value [2] was 20 mmHg, the “% Inhibition” value [3] was 57% and the “Average Change” value [3] was 20 mmHg. For the same compound, the “% Inhibition” value [4] was 62%, the “Average Change” value [4] was 17.5 mmHg and the “% Inhibition” value [5] was 67%. For the same compound, the “Average Change” value [5] was 15 mmHg, the “% Inhibition” value [6] was 62% and the “Average Change” value [6] was 17.5 mmHg. For the same compound, the “% Inhibition” value [7] was 24%, the “Average Change” value [7] was 35 mmHg and the “% Inhibition” value [8] was 50%. For the same compound, the “Average Change” value [8] was 27.5 mmHg, the “% Inhibition” value [9] was 58% and the “Average Change” value [9] was 23 mmHg. For the same compound, the “% Inhibition” value [10] was 59%, the “Average Change” value [10] was 22.5 mmHg and the “% Inhibition” value [11] was 67%. The “Average Change” value [11] was 18 mmHg, the “% Inhibition” value [12] was 50% and the “Average Change” value [12] was 27.5 mmHg. For the same compound, the “% Inhibition” value [13] was 55%, the “Average Change” value [13] was 25 mmHg and the “% Inhibition” value [14] was 54%. For the same compound, the “Average Change” value [14] was 25.5 mmHg, the “Response After AII” value [1] was 240 mmHg and the Change [15] was 15 mmHg and 25 mmHg. For the same compound, the “Control Before AII” value [15] was 150 mmHg and 215 mmHg, the “Response After AII” value [15] was 165 mmHg and the Change [16] was 15 mmHg and 25 mmHg. For the same compound, the “Control Before AII” value [16] was 145 mmHg and 215 mmHg, the “Response After AII” value [16] was 160 mmHg and 240 mmHg and the “Response After AII” value [3] was 230 mmHg. For the same compound, the Change [17] was 40 mmHg and 0 mmHg, the “Control Before AII” value [17] was 135 mmHg and 230 mmHg and the “Response After AII” value [17] was 175 mmHg. For the same compound, the “Response After AII” value [4] was 160 mmHg, the Change [18] was 20 mmHg and 15 mmHg and the “Control Before AII” value [18] was 140 mmHg and 200 mmHg. For the same compound, the “Response After AII” value [18] was 215 mmHg, the Change [19] was 25 mmHg and 5 mmHg and the “Control Before AII” value [19] was 140 mmHg and 205 mmHg. For the same compound, the “Response After AII” value [19] was 165 mmHg and 210 mmHg, the Change [20] was 25 mmHg and 10 mmHg and the “Control Before AII” value [20] was 135 mmHg and 190 mmHg. For the same compound, the “Response After AII” value [20] was 160 mmHg and 200 mmHg, the Change [7] was 35 mmHg and the “Control Before AII” value [21] was 140 mmHg and 190 mmHg. For the same compound, the “Response After AII” value [21] was 175 mmHg and 225 mmHg, the Change [22] was 20 mmHg and 35 mmHg and the “Control Before AII” value [22] was 140 mmHg and 215 mmHg. The “Response After AII” value [22] was 160 mmHg and 250 mmHg, the Change [23] was 15 mmHg and 31 mmHg and the “Control Before AII” value [23] was 145 mmHg and 224 mmHg. For the same compound, the “Response After AII” value [23] was 160 mmHg and 255 mmHg, the Change [24] was 25 mmHg and 20 mmHg and the “Control Before AII” value [24] was 140 mmHg and 215 mmHg. The “Response After AII” value [24] was 165 mmHg and 235 mmHg, the “Response After AII” value [11] was 160 mmHg and the Change [25] was 25 mmHg and 11 mmHg. For the same compound, the “Control Before AII” value [25] was 135 mmHg and 214 mmHg, the “Response After AII” value [25] was 225 mmHg and the Change [26] was 35 mmHg and 20 mmHg. The “Control Before AII” value [26] was 140 mmHg and 195 mmHg, the “Response After AII” value [26] was 175 mmHg and 215 mmHg and the Change [27] was 35 mmHg and 15 mmHg. The “Control Before AII” value [27] was 140 mmHg and 190 mmHg, the “Response After AII” value [27] was 175 mmHg and 205 mmHg and the Change [28] was 40 mmHg and 11 mmHg. For the same compound, the “Control Before AII” value [28] was 140 mmHg and 205 mmHg and the “Response After AII” value [28] was 180 mmHg and 216 mmHg.
